# Assay results as given in PubChem BioAssay (NCI).
#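 Assay format: 96-well plates, 48-hour exposure. The concentration for full growth arrest is given as TGI.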
# Tests used:
# Assay in all cases: NCI anticancer screen, dose series, 48 h
# NCI-H23 lung = test system: NCI-H23 lung
# T-47D breast = test system: T-47D breast
# MOLT-4 leukemia = test system: MOLT-4 leukemia
# HCT-116 colon = test system: HCT-116 colon
# RXF 393 renal = test system: RXF 393 renal
# ACHN renal = test system: ACHN renal
# MCF7 breast = test system: MCF7 breast
# OVCAR-4 ovarian = test system: OVCAR-4 ovarian
# SN12C renal = test system: SN12C renal
# HOP-62 NSCLC = test system: HOP-62 NSCLC
# MDA-MB-435 = test system: MDA-MB-435
# MDA-MB-231 breast = test system: MDA-MB-231 breast
# RPMI-8226 leukemia = test system: RPMI-8226 leukemia
# NCI/ADR-RES ovarian = test system: NCI/ADR-RES ovarian
# CAKI-1 renal = test system: CAKI-1 renal
# HL-60(TB) leukemia = test system: HL-60(TB) leukemia
# U251 CNS = test system: U251 CNS
# HS 578T breast = test system: HS 578T breast
# NCI-H522 lung = test system: NCI-H522 lung
# UACC-62 melanoma = test system: UACC-62 melanoma
Compound,TGI (NCI-H23 lung) [µM],TGI (T-47D breast) [µM],TGI (MOLT-4 leukemia) [µM],TGI (HCT-116 colon) [µM],TGI (RXF 393 renal) [µM],TGI (ACHN renal) [µM],TGI (MCF7 breast) [µM],TGI (OVCAR-4 ovarian) [µM],TGI (SN12C renal) [µM],TGI (HOP-62 NSCLC) [µM],TGI (MDA-MB-435) [µM],TGI (MDA-MB-231 breast) [µM],TGI (RPMI-8226 leukemia) [µM],TGI (NCI/ADR-RES ovarian) [µM],TGI (CAKI-1 renal) [µM],TGI (HL-60(TB) leukemia) [µM],TGI (U251 CNS) [µM],TGI (HS 578T breast) [µM],TGI (NCI-H522 lung) [µM],TGI (UACC-62 melanoma) [µM]
N#CN=C1c2ccccc2C(=NC#N)c2cc(CO)ccc21,> 100,89.2,59,> 100,81.5,74,83.1,> 100,> 100,> 100,80.3,> 100,31,83.6,> 100,60.7,> 100,> 100,> 100,
Cc1c(C)c2c(c(N)c1C#N)C(=O)N(OS(=O)(=O)c1ccccc1)C2=O,,20,87,68.1,30.7,33.1,> 100,41.3,51.4,,58.8,> 100,37.8,58.9,51,> 100,49.5,> 100,34,61.4
c1ccc2c(c1)nc1n2CCNC1,> 100,> 100,> 100,> 100,> 100,> 100,> 100,> 100,> 100,> 100,> 100,> 100,> 100,> 100,> 100,> 100,> 100,> 100,,> 100
COc1ccc(-c2cc(C3CC3)nc(SCC(=O)O)c2C#N)cc1,> 100,> 100,> 100,> 100,> 100,> 100,> 100,> 100,> 100,> 100,> 100,> 100,> 100,> 100,> 100,> 100,> 100,> 100,71.6,> 100
N#Cc1ccc(/C=N/NC(=O)CSCC(=O)N/N=C/c2ccc(C#N)cc2)cc1,> 100,> 100,> 100,> 100,> 100,> 100,> 100,> 100,> 100,> 100,> 100,81.7,> 100,> 100,> 100,> 100,> 100,> 100,> 100,> 100
COc1ccc2c(c1)c(=O)c1c(NCCCN(C)CCCNc3ccc4c(=O)n(CCN(C)C)c(=O)n5c6ccc(OC)cc6c(=O)c3c45)ccc3c(=O)n(CCN(C)C)c(=O)n2c31,0.704,9.43,0.118,1.13,0.602,1.42,1.12,< 0.049,1.43,1.04,0.756,2.56,0.176,2.26,0.784,0.963,1.26,1.73,0.544,0.956
COC(=O)c1ccc(CCC2=CC(=O)C(Br)=CC2=O)cc1,28.4,70.9,7.32,30.3,32.3,25.1,34.9,30.9,32.5,31.6,31.2,38.7,49.3,43.8,26.4,5.2,32.5,45,10.5,31.7
COc1cc(CCNC2=CC(=O)c3cccnc3C2=O)ccc1O,4.65,35.1,18.2,4.8,4.07,5.61,1.3,3.87,2.43,2.86,0.317,2.08,5.2,11.5,5.04,9.43,7.05,3.56,2.26,2.7
O=C1CSC(c2cccc(Cl)c2)N1c1c(O)c(Cl)cc(Br)c1Cl (stereo not given),> 100,41.7,57.9,28.8,35.7,27.9,29,28.1,> 100,> 100,31.9,27.5,39.4,> 100,> 100,51.8,72.3,> 100,,56.9
CCCN=C1Nc2ccccc2[C@@H]2N(C)c3ccccc3C(C)C[C@]12C (stereo not given in full),37.3,49.6,45.7,30.4,37.2,60.5,49.3,23.4,> 100,32.1,34,29.8,41.7,52,84.5,56.1,,41.9,39.8,33.2
C/C=C1/CN2[C@@H](C3=C[C@@H]4[C@@H]5N(C3=O)c3ccccc3[C@@]53CCN5C/C(=C/C)[C@@H]4C[C@H]53)C[C@@]34c5ccccc5N5C(=O)CC=C([C@H]1C[C@H]23)[C@H]54,14.3,49.2,6.28,9.07,10.6,12.1,10.7,19.9,9.95,17.5,14.1,9.19,,33.6,15.7,2.2,7.67,17.3,14.6,9.1
CC(C)=NNc1cnnc2ccc([N+](=O)[O-])cc12,> 100,> 100,> 100,> 100,> 100,> 100,> 100,,> 100,,> 100,> 100,> 100,> 100,> 100,43.2,> 100,> 100,52,
